Consider one compound from PMC5770598, “Small molecules targeted to the microtubule–Hec1 interaction inhibit cancer cell growth through microtubule stabilization” (Oncogene, 2017).

What is called Kd is a measure of binding affinity in units of concentration. The low end stands for a tighter complex, the high end for a looser complex.

Molecules are shown by their SMILES.

Test [1] addresses T1, MTs (assembled microtubules).
T1 construct: gene alpha-tubulin; assembled microtubules (polymer of alpha/beta-tubulin dimers), 6050 RU amine-coupled to COOH5 chip
In words: SPR, steady-state Scatchard plot. The class given is binding. As to conditions: microtubules immobilised on COOH5 chip; pH 7.4, 10 mM Hepes, 150 mM NaCl, 2 mM MgCl2, 0.05% P20, 2% DMSO; error printed as ±0.1. Background: SPR reads the build-up and loss of mass on a sensor chip optically.

For the next test, the target named is T2, tubulin (dimeric).
T2 construct: gene alpha-tubulin; unassembled alpha/beta-tubulin dimer, 3900 RU amine-coupled to COOH5 chip
In words: SPR, steady-state Scatchard plot. The class given is binding. As to conditions: tubulin dimers immobilised on COOH5 chip; pH 7.4, 10 mM Hepes, 150 mM NaCl, 2 mM MgCl2, 0.05% P20, 2% DMSO.

In the case of `O=C(/C=C/c1cn(CC(O)CN2CCCCC2)c2ccccc12)c1ccc(Br)cc1` (centres unmarked) [SM15], the Kd is 940 ± 130 nM in test [1] and 1800 ± 400 nM on tubulin (dimeric).
